Experiment [1] concerns 5'-biotin-labeled hairpin DNA duplex (DNA, hairpin) AAAGCTTTTGTAAAGCTTT
Put plainly: SPR (BIAcore), ka/kd. The conditions noted are these: 50 mM NaCl; 20 mM Tris-HCl pH 7.3, no spermine.

Experiment [2] has as its system d(TTTGCAAA) duplex (DNA, duplex) TTTGCAAA
Put plainly: UV melting at 260 nm. To be noted: Na+ (20 mM sodium cacodylate); pH 7.3, 4 µM duplex, no spermine; ACTD concentration not stated.

*1 amine or outer side, *2 acyl side, *3 side chain or, on linkers, in order; H or OH if unused. Where a SMILES comes first, the peptide text is derived from it. Bridges are numbered along the chain shown (N, C = ends). Roman numbers before positions name the chains, in order. [ ]: non-standard residue; d: D form. Actinocin(9to1) = Cc1c2oc3c(C)ccc(C(=O)[*:1])c3nc-2c(C(=O)[*:2])c(N)c1=O; NMeV = CN[C@H](C(=O)O)C(C)C; Sar = CNCC(=O)O

In the case of `Cc1c2oc3c(C)ccc(C(=O)N[C@@H]4C(=O)N[C@H](C(C)C)C(=O)N5CCC[C@H]5C(=O)N(C)CC(=O)N(C)[C@@H](C(C)C)C(=O)O[C@@H]4C)c3nc-2c(C(=O)N[C@@H]2C(=O)N[C@H](C(C)C)C(=O)N3CCC[C@H]3C(=O)N(C)CC(=O)N(C)[C@@H](C(C)C)C(=O)O[C@@H]2C)c(N)c1=O` (I: T[dV]P[Sar][NMeV] / II: T[dV]P[Sar][NMeV]; ester I:1-I:C, II:1-II:C; linker I:N-II:N via Actinocin(9to1)), in experiment [1], the Ka is listed as 2.48 ± 0.17 × 10^6 M^-1. Further, the midpoint of thermal melting (Tm) in experiment [2] stood at 6.3 °C.

(Values after article PMC3493566 (2012).)
